Laboratory results from US11850257B2, “Method for enhancing beta-adrenergic response” (Saganatura EHF., priority 2019, dated 2023).

Experiments:
mice [1] = assay: Mouse toxicity experiment, Angelica archangelica water-extract mixed in food for 6 months; type: in vivo; details: daily consumption of cnidimoside A 3.35 mg/kg (calculated from extract content 0.15%)
Procedure: In a mouse experiment, we fed mice with about […] Angelica archangelica water-extract (mixed in food) daily for 6 months. Assuming the mice to be on average 23 g and cnidimoside A content in the extract to be 0.15%, this means that the daily consumption of cnidimoside A was 3.35 mg/kg.

mice [2] = details: 100 mg/kg daily, 30 days; cited from earlier work
[3] = test system: β-adrenergic receptors in porcine detrusors; assay: Contraction of potassium-contracted pig detrusor muscle strips in organ baths, relaxation by adrenaline and desensitization
Source text: Bladders were obtained from freshly slaughtered pigs and placed in cold Krebs solution (composition, mM: sodium chloride 119, potassium chloride 4.6, sodium bicarbonate 15, calcium chloride 1.5, magnesium chloride 1.2, sodium dihydrogen phosphate 1.2, glucose was 1.98 g/L) which had been gassed by 5% CO2 and put on ice. Subsequently four adjacent strips were cut from the detrusor (typically 2 mm wide and 20 mm long). In each case, four strips were cut, one of which served as a control. The tissues were mounted in a 100-mL organ bath containing sodium Krebs solution, which was maintained at 37° C. and continuously gassed with 95% O2 and 5% CO2. The strips were placed under a tension of ≈1 g and allowed to equilibrate for 60 minutes, during which the bath was changed three times. The muscle contraction was recorded by a transducer. The muscle strips were then contracted by addition of potassium up to 50 mM and allowed to equilibrate.
About 40 minutes after addition of potassium, cnidimoside A was given to the organ baths. Cnidimoside A was isolated from Angelica archangelica leaf by boiling the dried leaf in water, extracting the water phase by ethyl acetate and subjecting the resulting organic phase to silica acid chromatography column. Cnidimoside A is eluted by 10% methanol in chloroform after washing the column with ethyl acetate and chloroform. The cnidimoside A rich fractions were recrystallized in methanol.
The muscle strip in the fourth organ bath (D in FIG. 1) received the same amount of DMSO but no cnidimoside A. About 20 and 30 minutes later (see FIG. 1, times 9 and 10) adrenaline was added to all organ baths, resulting in 0.4 (time 9) and 1.2 μM (time 10) final concentration, respectively.
About 75 minutes after addition of potassium, cnidimoside A dissolved in DMSO was added to three organ baths (E-G, time-10 in FIG. 2), the fourth receiving the same amount of DMSO (bottom graph (H) in FIG. 2). Fifteen minutes after the addition of cnidimoside A, adrenaline was added to all baths, to a final concentration of 2 μM (time 11 in FIG. 2). In the absence of cnidimoside A the muscle strip relaxed for about 15 minutes, but then started contracting again, reaching the same level of contraction about 50 minutes after the addition of adrenaline.

Water solubility = type: physicochemical

In the case of `C/C(=C/Cc1c(O)cc2oc(C)cc(=O)c2c1O)CO[C@@H]1O[C@H](CO)[C@@H](O)[C@H](O)[C@H]1O` [cnidimoside A, 5,7-dihydroxy-2-methyl-6-[(Z)-3-methyl-4-[(2R,3R,4S,5S,6R)-3,4,5-trihydroxy-6-(hydroxymethyl)oxan-2-yl]oxybut-2-enyl]chromen-4-one], the Toxic effect (mice [1]) is given as “No toxic effect”, the “Effect on the weight of body, liver, spleen or thymus” value (mice [2]) is given as “without affecting” and the “Desensitization of the relaxation response to adrenaline” value (“Desensitization … to adrenaline” for short) ([3]; 13 μM cnidimoside A (bath C), adrenaline 0.4 and 1.2 μM, Experiment I) is given as “occurred slowly”. For the same molecule, the “Desensitization … to adrenaline” value ([3]; 38 μM cnidimoside A (bath B), adrenaline 0.4 and 1.2 μM, Experiment I) was “not observed at all”, the “Desensitization … to adrenaline” value ([3]; 112 μM cnidimoside A (bath A), adrenaline 0.4 and 1.2 μM, Experiment I) was “not observed at all” and the “Desensitization … to adrenaline” value ([3]; 200 μM cnidimoside A, adrenaline 2 μM, Experiment II) was “occurs much slower”. For the same molecule, the “Repression of desensitization across doses” value ([3]; 13, 38 and 112 μM cnidimoside A vs DMSO control, Experiment I) was “repressed dose-dependently” and the Water solubility (Water solubility) was “highly water soluble”.
